{"source": "paper PMC12498426", "about": "“Conformational Plasticity of LptC Regulates Lipopolysaccharide Transport by the LptB2FGC Complex” (Journal of the American Chemical Society, 2025)", "molecules": {"B1": {"name": "LptC, full length with its transmembrane helix (natural protein, E. coli, UniProt P0ADV9 1-191, looked up)", "chain": "MSKARRWVIIVLSLAVLVMIGINMAEKDDTAQVVVNNNDPTYKSEHTDTLVYNPEGALSYRLIAQHVEYYSDQAVSWFTQPVLTTFDKDKIPTWSVKADKAKLTNDRMLYLYGHVEVNALVPDSQLRRITTDNAQINLVTQDVTSEDLVTLYGTTFNSSGLKMRGNLRSKNAELIEKVRTSYEIQNKQTQP", "notes": "LptC, E. coli, full length including the transmembrane helix; Isotope labelled for NMR (13C,15N-lysine or uniform 15N); also called 15N-LptC; 15N,13C-Lys-LptC; source: E. coli BL21(DE3), pBAD33.1, membranes solubilised in LS detergent, purified (Ni-NTA)"}}, "key": {"LptB2FG [1]": {"molecular_target": "T1, LptB2FG (Escherichia coli, UniProt P0A9V1+P0ADC6+P0AF98)", "T1 sequence (P0AF98 1-366)": "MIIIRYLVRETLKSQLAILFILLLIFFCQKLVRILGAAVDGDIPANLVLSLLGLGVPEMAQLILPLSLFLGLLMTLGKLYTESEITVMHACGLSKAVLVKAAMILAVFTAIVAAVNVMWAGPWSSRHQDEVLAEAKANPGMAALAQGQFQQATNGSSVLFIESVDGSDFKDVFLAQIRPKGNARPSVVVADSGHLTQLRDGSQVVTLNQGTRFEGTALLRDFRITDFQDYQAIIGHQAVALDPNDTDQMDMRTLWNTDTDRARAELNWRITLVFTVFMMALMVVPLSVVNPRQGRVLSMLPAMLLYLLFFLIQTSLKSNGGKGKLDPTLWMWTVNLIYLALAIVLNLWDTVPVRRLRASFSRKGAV", "T1 sequence (P0ADC6 1-360)": "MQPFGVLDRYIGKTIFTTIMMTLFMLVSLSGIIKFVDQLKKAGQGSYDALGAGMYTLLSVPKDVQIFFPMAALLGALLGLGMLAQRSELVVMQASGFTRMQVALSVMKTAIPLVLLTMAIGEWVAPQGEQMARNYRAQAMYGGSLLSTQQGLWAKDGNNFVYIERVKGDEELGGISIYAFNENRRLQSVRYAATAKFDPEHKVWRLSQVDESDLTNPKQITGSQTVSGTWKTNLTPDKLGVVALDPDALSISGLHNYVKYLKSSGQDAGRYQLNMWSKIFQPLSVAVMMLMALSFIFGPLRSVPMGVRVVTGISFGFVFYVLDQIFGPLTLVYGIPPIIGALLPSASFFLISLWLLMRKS", "T1 sequence (P0A9V1 2-241)": "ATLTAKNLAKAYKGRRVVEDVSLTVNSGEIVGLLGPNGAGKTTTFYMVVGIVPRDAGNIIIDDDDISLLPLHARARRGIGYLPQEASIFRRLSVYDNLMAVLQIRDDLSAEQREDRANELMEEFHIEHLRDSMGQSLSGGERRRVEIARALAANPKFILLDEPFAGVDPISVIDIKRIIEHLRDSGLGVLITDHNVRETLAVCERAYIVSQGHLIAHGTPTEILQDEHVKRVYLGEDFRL", "design": "gene lptF", "conditions": "POPE/POPG liposomes; 20 mM MgCl2; pH 7.5; 37 °C; 0-5 mM ATP; no LPS"}, "LptB2FG [2]": {"molecular_target": "T1, LptB2FG", "test": "nanoDSF thermal shift", "type": "binding", "design": "gene lptF; full-length proteins, N-terminal His6-tag on LptB, pETDuet-1, expressed in E. coli, in DDM micelles or POPE/POPG liposomes; B2FG complex", "conditions": "2-fold molar excess of Ra-LPS; DDM micelles; pH 7.5; 5 mM MgCl2"}, "LptB2FGC": {"molecular_target": "T2, LptB2FGC (Escherichia coli, UniProt P0A9V1+P0ADC6+P0AF98)", "T2 construct": "gene lptF; in vitro assembled from LptB2FG (N-terminal His6 on LptB) and full-length LptC (C-terminal His6); liposomes or resolubilized in DDM; 2:1:1:1, 158 kDa; with Lipopolysaccharide export system protein LptC", "test": "nanoDSF thermal shift", "type": "binding", "conditions": "2-fold molar excess of Ra-LPS; DDM micelles; pH 7.5; 5 mM MgCl2"}, "LptB2FG complex [3]": {"molecular_target": "T3, LptB2FG complex (E. coli, UniProt P0A9V1 1-241; P0AF98 1-366; P0ADC6 1-360)", "T3 construct": "LptF, transmembrane domain subunit of the lipopolysaccharide transporter, E. coli; LptG, transmembrane domain subunit of the lipopolysaccharide transporter, E. coli; Uniformly 13C-labelled for the TEDOR experiments; also called 13C-LptB2FG; ABC transporter LptB2FG; source: E. coli, co-expressed from pETDuet-1, membranes solubilised in DDM, purified (Ni-NTA); expression as previously described; …", "T3 sequence (looked up) 1": "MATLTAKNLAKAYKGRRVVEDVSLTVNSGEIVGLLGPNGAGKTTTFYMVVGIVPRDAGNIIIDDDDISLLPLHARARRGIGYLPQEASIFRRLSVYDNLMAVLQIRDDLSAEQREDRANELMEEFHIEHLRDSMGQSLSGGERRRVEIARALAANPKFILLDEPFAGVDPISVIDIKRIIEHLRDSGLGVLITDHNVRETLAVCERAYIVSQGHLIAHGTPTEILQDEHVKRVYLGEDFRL", "T3 sequence (looked up) 2": "T1 sequence (P0AF98 1-366)", "T3 sequence (looked up) 3": "T1 sequence (P0ADC6 1-360)", "test": "thermal shift assay (nanoDSF); LptB2FG and resolubilised LptB2FGC in 50 mM HEPES pH 7.5, 150 mM NaCl, 5 mM MgCl2, 5% glycerol, 0.05% DDM; 1 °C/min from 25 to 85 °C; first derivative of the 350 nm fluorescence", "conditions": "both partners purified"}, "LptB2FG complex [4]": {"molecular_target": "T3, LptB2FG complex", "test": "native MS; LILBID-MS of LptB2FGC resolubilised in DDM micelles, apo state, 20 mM Tris-HCl pH 7.5, 0.05% DDM", "conditions": "both partners purified"}}}
{"molecule": "Nc1ncnc2c1ncn2[C@@H]1O[C@H](COP(=O)(O)OP(=O)(O)OP(=O)(O)O)[C@@H](O)[C@H]1O", "note": "[ATP]", "values": [{"measurement": "malachite green ATPase assay, proteoliposomes", "setting": "LptB2FG [1]", "result": "activity of LptB2FG and LptB2FGC was determined by measuring the release of inorganic phosphate"}]}
{"molecule": "Ra-LPS", "values": [{"measurement": "shift in melting temperature", "setting": "LptB2FG [2]", "result": "~ 9 K"}, {"measurement": "increase in melting temperature", "setting": "LptB2FGC", "result": -271, "unit": "°C"}]}
{"molecule": "B1", "values": [{"measurement": "increase of melting temperature (nanoDSF)", "setting": "LptB2FG complex [3]", "result": 11, "unit": "K"}, {"measurement": "stoichiometry N", "setting": "LptB2FG complex [4]", "result": 1, "unit": "LptC per LptB2FG"}]}
